Reference: patent publication US8748417B2, “Amino-pyrrolidine-azetidine diamides as monoacylglycerol lipase inhibitors” (Janssen Pharmaceutica, NV, priority 2010, dated 2014)
Changes are numbered by the printed parent chain.

Columns and labels:
[1] = biological target: T1, purified mutant MGL (mut-MGLL 11-313 L179S L186S) (Homo sapiens, UniProt Q99685, L169S/L176S); test: MGL enzyme activity assay (4MU-B cleavage), mutant MGL; format: biochemical; conditions: mutant MGL 5 nM, 4MU-B 10 μM, 37° C.; read-out: MGL mutant inh IC50
T1 construct: purified mutant MGL (mut-MGLL 11-313 L179S L186S)
T1 sequence (Q99685 1-303 L169S/L176S): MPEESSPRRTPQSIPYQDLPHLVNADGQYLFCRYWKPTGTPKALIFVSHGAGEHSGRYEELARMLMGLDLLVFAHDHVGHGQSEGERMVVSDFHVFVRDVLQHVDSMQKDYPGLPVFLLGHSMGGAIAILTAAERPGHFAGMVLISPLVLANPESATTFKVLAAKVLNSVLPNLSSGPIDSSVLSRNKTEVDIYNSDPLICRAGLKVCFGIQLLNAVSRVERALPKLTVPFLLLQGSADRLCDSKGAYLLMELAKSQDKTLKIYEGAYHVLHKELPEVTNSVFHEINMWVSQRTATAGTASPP
In short: (§1)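 Enzyme in 20 mM PIPES pH 7.0, 150 mM NaCl, 0.001% Tween 20 with 4MU-B at 10 μM final and MGL at 5 nM final; compounds 17 to 0.0003 μM final, enzyme added last. Fluorescence (ex 335/em 440 nm) followed at 37° C for 5 min; IC50 from fit of fractional activity versus inhibitor concentration.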

[2] = biological target: T2, purified wild type MGL (wt-MGLL 6H-11-313) (Homo sapiens, UniProt Q99685); test: MGL enzyme activity assay (4MU-B cleavage), wild type MGL; format: biochemical; conditions: wild type MGL 5 nM, 4MU-B 10 μM, 37° C.; read-out: MGL wild type inh IC50
T2 construct: purified wild type MGL (wt-MGLL 6H-11-313)
T2 sequence (Q99685 1-303): T1 sequence (Q99685 1-303 L169S/L176S) with S169L, S176L
In short: as §1

[3] = tested on: MGL (rat brain homogenate); test: 2-AG accumulation assay in rat brain homogenate; format: biochemical; conditions: compound 1 μM, percent of vehicle 2-AG accumulation
In short: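 Rat brain homogenate was incubated with compound for 15 min at 37° C., after which CaCl2 was added to a final concentration of 10 mM and incubation continued for 15 min at 37° C. in 5 mL total. Reactions were stopped with 6 mL of 2:1 chloroform/methanol, and 2-AG accumulated in the organic phase was quantified by HPLC/MS.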

mutant MGL = biological target: T3, mutant MGL (Homo sapiens, UniProt Q99685, L169S/L176S); test: MGL ThermoFluor assay - mutant; format: binding; conditions: qNMR-corrected compound concentration; read-out: MGL mutant ThermoFluor qKd
T3 construct: purified mutant MGL (mut-MGLL 11-313 L179S L186S)
T3 sequence (Q99685 1-303 L169S/L176S): T1 sequence (Q99685 1-303 L169S/L176S)
Method: The ThermoFluor (TF) assay is a 384-well plate-based binding assay that measures thermal stability of proteins^1,2. The experiments were carried out using instruments available from Johnson & Johnson Pharmaceutical Research & Development, LLC. TF dye used in all experiments was 1,8-ANS (Invitrogen: A-47). Final TF assay conditions used for MGL studies were 0.07 mg/ml of mutant MGL, 100 μM ANS, 200 mM NaCl, 0.001% Tween-20 in 50 mM PIPES (pH=7.0).
Screening compound plates contained 100% DMSO compound solutions at a single concentration. For follow-up concentration-response studies, compounds were arranged in a pre-dispensed plate (Greiner Bio-one: 781280), wherein compounds were serially diluted in 100% DMSO across 11 columns within a series. Columns 12 and 24 were used as DMSO reference and contained no compound. For both single and multiple compound concentration-response experiments, the compound aliquots (46 nL) were robotically predispensed directly into 384-well black assay plates (Abgene: TF-0384/k) using the Hummingbird liquid handler. Following compound dispension, protein and dye solutions were added to achieve the final assay volume of 3 μL. The assay solutions were overlayed with 1 μL of silicone oil (Fluka, type DC 200: 85411) to prevent evaporation.
Bar-coded assay plates were robotically loaded onto a thermostatically controlled PCR-type thermal block and then heated from 40 to 90° C. degrees at a ramp-rate of 1° C./min for all experiments. Fluorescence was measured by continuous illumination with UV light (Hamamatsu LC6), supplied via fiber optics and filtered through a band-pass filter (380-400 nm; >6 OD cutoff). Fluorescence emission of the entire 384-well plate was detected by measuring light intensity using a CCD camera (Sensys, Roper Scientific) filtered to detect 500±25 nm, resulting in simultaneous and independent readings of all 384 wells. A single image with 20-sec exposure time was collected at each temperature, and the sum of the pixel intensity in a given area of the assay plate was recorded vs temperature and fit to standard equations to yield the Tm^1. • 1. Pantoliano, M. W., Petrella, E. C., Kwasnoski, J. D., Lobanov, V. S., Myslik, J., Graf, E., Carver, T., Asel, E., Springer, B. A., Lane, P., and Salemme, F. R. (2001) J Biomol Screen 6, 429-40. • 2. Matulis, D., Kranz, J. K., Salemme, F. R., and Todd, M. J. (2005) Biochemistry 44, 5258-66.
The Kd values for certain compounds of Formula (I) were determined from a fit of the equation to the concentration-response plot of the fractional activity as a function of […]. For some experiments, quantitative NMR spectroscopy (qNMR) was used to measure concentration of the initial 100% DMSO compound solutions and, using the same fitting method, qKd values were determined.

Row | SMILES | IC50 [1] [µM] | IC50 [2] [µM] | Kd (mutant MGL) [µM] | Rat Brain 2AG % VehCntrl (%) @1 μM [3] [%]
1 | O=C(c1ccc(-c2cccc(Cl)c2)cc1)N1CC(N[C@H]2CCN(C(=O)c3ccccc3)C2)C1 [Cpd 29, (3S)-N-{1-[(3′-Chlorobiphenyl-4-yl)carbonyl]azetidin-3-yl}-1-(phenylcarbonyl)pyrrolidin-3-amine] | 0.011 | 0.0098 | – | 163
2 | O=C(c1ccc(-c2ccc(Cl)c(Cl)c2)cc1)N1CC(N[C@H]2CCN(C(=O)c3ccccc3)C2)C1 [Cpd 30, (3S)-N-{1-[(3′,4′-Dichlorobiphenyl-4-yl)carbonyl]azetidin-3-yl}-1-(phenylcarbonyl)pyrrolidin-3-amine] | 0.0088 | 0.007 | – | 155
3 | O=C(c1ccccc1)N1CC[C@H](NC2CN(C(=O)c3sc4cc(-c5ccccc5)ccc4c3Cl)C2)C1 [Cpd 31, (3S)-N-{1-[(3-Chloro-6-phenyl-1-benzothiophen-2-yl)carbonyl]azetidin-3-yl}-1-(phenylcarbonyl)pyrrolidin-3-amine] | 0.005 | < 0.005 | – | 323
4 | O=C(c1ccccc1)N1CC[C@H](NC2CN(C(=O)c3cc4ccc(-c5cccc(C(F)(F)F)c5)cc4s3)C2)C1 [Cpd 44, (3S)-1-(Phenylcarbonyl)-N-[1-({6-[3-(trifluoromethyl)phenyl]-1-benzothiophen-2-yl}carbonyl)azetidin-3-yl]pyrrolidin-3-amine] | 0.0317 | 0.009 | – | 839
5 | O=C(c1ccc(-c2cccc(C(F)(F)F)c2)cc1)N1CC(N(O)[C@H]2CCN(C(=O)c3ccccc3)C2)C1 [Cpd 54, (3S)-N-Hydroxy-1-(phenylcarbonyl)-N-(1-{[3′-(trifluoromethyl)biphenyl-4-yl]carbonyl}azetidin-3-yl)pyrrolidin-3-amine] | < 0.005 | 0.0588 | – | 242
6 | O=C(c1ccccc1)N1CC[C@H](NC2CN(C(=O)c3sc4cc(F)ccc4c3Cl)C2)C1 [Cpd 56, (3S)-N-{1-[(3-Chloro-6-fluoro-1-benzothiophen-2-yl)carbonyl]azetidin-3-yl}-1-(phenylcarbonyl)pyrrolidin-3-amine] | < 0.005 | 0.0684 | – | 222
7 | O=C(c1ccc2c(-c3ccccc3)c[nH]c2c1)N1CC(N[C@H]2CCN(C(=O)c3ccccc3)C2)C1 [Cpd 57, (3S)-1-(Phenylcarbonyl)-N-{1-[(3-phenyl-1H-indol-6-yl)carbonyl]azetidin-3-yl}pyrrolidin-3-amine] | 0.0443 | 0.179 | – | 154
8 | O=C(c1ccc2c(ccn2CC(F)F)c1)N1CC(N[C@H]2CCN(C(=O)c3nccs3)C2)C1 [Cpd 213, (3S)-N-(1-{[1-(2,2-Difluoroethyl)-1H-indol-5-yl]carbonyl}azetidin-3-yl)-1-(1,3-thiazol-2-ylcarbonyl)pyrrolidin-3-amine] | – | 1.39 | 0.963 | –

Now from value to compound, other results behind:

Row | IC50 [1] [µM] | IC50 [2] [µM] | Kd (mutant MGL) [µM] | SMILES | Rat Brain 2AG % VehCntrl (%) @1 μM [3] [%]
9 | < 0.005 | < 0.005 | – | O=C(c1ccccc1)N1CC[C@H](NC2CN(C(=O)c3sc4cc(-c5cccc(C(F)(F)F)c5)ccc4c3Cl)C2)C1 [Cpd 32, (3S)-N-[1-({3-Chloro-6-[3-(trifluoromethyl)phenyl]-1-benzothiophen-2-yl}carbonyl)azetidin-3-yl]-1-(phenylcarbonyl)pyrrolidin-3-amine] | 524
10 | < 0.005 | < 0.005 | – | O=C(c1ccccc1)N1CC[C@H](NC2CN(C(=O)c3sc4cc(-c5ccc(C(F)(F)F)cc5)ccc4c3Cl)C2)C1 [Cpd 33, (3S)-N-[1-({3-Chloro-6-[4-(trifluoromethyl)phenyl]-1-benzothiophen-2-yl}carbonyl)azetidin-3-yl]-1-(phenylcarbonyl)pyrrolidin-3-amine] | 499
11 | 0.0063 | < 0.005 | – | Cc1c(C(=O)N2CC(N[C@H]3CCN(C(=O)c4ccccc4)C3)C2)sc2ccc(-c3cccc(C(F)(F)F)c3)cc12 [Cpd 41, (3S)-N-[1-({3-Methyl-5-[3-(trifluoromethyl)phenyl]-1-benzothiophen-2-yl}carbonyl)azetidin-3-yl]-1-(phenylcarbonyl)pyrrolidin-3-amine] | 1102
12 | 0.01 | 0.286 | – | CCN(C1CN(C(=O)c2ccc(-c3cccc(C(F)(F)F)c3)cc2)C1)[C@H]1CCN(C(=O)c2ccccc2)C1 [Cpd 53, (3S)-N-Ethyl-1-(phenylcarbonyl)-N-(1-{[3′-(trifluoromethyl)biphenyl-4-yl]carbonyl}azetidin-3-yl)pyrrolidin-3-amine] | 164
13 | < 0.005 | 0.0202 | – | O=C(c1ccccc1)N1CC[C@H](NC2CN(C(=O)c3sc4ccccc4c3Br)C2)C1 [Cpd 55, (3S)-N-{1-[(3-Bromo-1-benzothiophen-2-yl)carbonyl]azetidin-3-yl}-1-(phenylcarbonyl)pyrrolidin-3-amine] | 247
14 | < 0.005 | 0.0414 | – | O=C(c1ccc(-c2cccc(C(F)(F)F)c2)cc1)N1CC(NC2CN(C(=O)c3ccccc3)CC2F)C1 (stereo not drawn) [Cpd 59, (3-((1-Benzoyl-4-fluoropyrrolidin-3-yl)amino)azetidin-1-yl)(3′-(trifluoromethyl)-[1,1′-biphenyl]-4-yl)methanone] | 389
15 | 0.0395 | 0.0709 | – | Cn1cc(-c2ccccc2)c2ccc(C(=O)N3CC(N[C@H]4CCN(C(=O)c5ccccc5)C4)C3)cc21 [Cpd 64, (3S)-N-{1-[(1-Methyl-3-phenyl-1H-indol-6-yl)carbonyl]azetidin-3-yl}-1-(phenylcarbonyl)pyrrolidin-3-amine] | 182
16 | – | 0.344 | 0.186 | O=C(c1ccc2c(-c3cccc(F)c3)c[nH]c2c1)N1CC(N[C@H]2CCN(C(=O)c3ccccc3)C2)C1 [Cpd 204, (3S)-N-(1-{[3-(3-Fluorophenyl)-1H-indol-6-yl]carbonyl}azetidin-3-yl)-1-(phenylcarbonyl)pyrrolidin-3-amine] | –
17 | – | 0.668 | 1.44 | O=C(c1cscn1)N1CC[C@H](NC2CN(C(=O)c3cccc4c3ccn4-c3ccc(F)cc3)C2)C1 [Cpd 215, (3S)-N-(1-{[1-(4-Fluorophenyl)-1H-indol-4-yl]carbonyl}azetidin-3-yl)-1-(1,3-thiazol-4-ylcarbonyl)pyrrolidin-3-amine] | –
